This is an account of results in patent publication US8563714B2, “Bridged spiro [2.4] heptane derivatives as ALX receptor and/or FPRL2 agonists” (Actelion Pharmaceuticals Ltd., priority 2009, dated 2013).

One assay addresses T1, human ALX receptor (Homo sapiens, UniProt P25090).
T1 construct: expressed in transfected cells; host or cells: HEK293 (HEK293-hALXR-Gα16)
T1 sequence (P25090 1-351): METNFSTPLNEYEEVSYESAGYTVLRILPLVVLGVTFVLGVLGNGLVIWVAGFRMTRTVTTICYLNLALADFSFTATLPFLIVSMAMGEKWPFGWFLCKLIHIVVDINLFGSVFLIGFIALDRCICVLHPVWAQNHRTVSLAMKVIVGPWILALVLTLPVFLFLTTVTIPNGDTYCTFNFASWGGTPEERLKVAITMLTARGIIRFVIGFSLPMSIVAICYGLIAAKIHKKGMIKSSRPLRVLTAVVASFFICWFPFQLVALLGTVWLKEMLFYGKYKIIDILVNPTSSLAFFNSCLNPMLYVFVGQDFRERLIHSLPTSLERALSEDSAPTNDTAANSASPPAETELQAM
Description: Intracellular calcium measurements (FLIPR), agonistic activity in HEK293-hALXR-Gα16 cells. The format is cell-based. The following applies: Fluo-4 calcium FLIPR, normalized to WKYMVm 10 nM. As to the method:
(§1) The ALX receptor and FPRL2 agonistic activities of the compounds of formula (I) are determined in accordance with the following experimental method.
(§2) Intracellular Calcium Measurements:
Cells expressing recombinant human ALX receptor and the G-protein Gα16 (HEK293-hALXR-Gα16) were grown to 80% confluency in Growing Medium (GM). Cells were detached from culture dishes with a cell dissociation buffer (Invitrogen, 13151-014), and collected by centrifugation at 1,000 rpm at rt for 5 min in Assay Buffer (AB) (equal parts of Hank's BSS (Gibco, 14065-049) and DMEM without Phenol Red (Gibco, 11880-028)). After 60 min incubation at 37° C. under 5% CO2 in AB supplemented with 1 μM Fluo-4 (AM) (Invitrogen, F14202), and 20 mM HEPES (Gibco, 15630-056), the cells were washed and resuspended in AB. They were then seeded onto 384-well FLIPR assay plates (Greiner, 781091) at 50′000 cells in 70 μl per well and sedimented by centrifugation at 1,000 rpm for 1 min. Stock solutions of test compounds were made up at a concentration of 10 mM in DMSO, and serially diluted in AB to concentrations required for activation dose response curves. WKYMVm (Phoenix Peptides) was used as a reference agonist. FLIPR384 or FLIPR Tetra instruments (Molecular Devices) were operated according to the manufacturer's standard instructions, adding 4 μl of test compound dissolved at 10 mM in DMSO and diluted prior to the experiment in assay buffer to obtain the desired final concentration. Changes in fluorescence were monitored before and after the addition of test compounds at lex=488 nm and lem=540 nm. Emission peak values above base level after compounds addition were exported after base line subtraction. Values were normalized to high-level control (WKYMVm compound, 10 nM final concentration) after subtraction of the base line value (AB addition).

A further assay deals with T2, human FPRL2 (Homo sapiens, UniProt P25089).
T2 construct: expressed in transfected cells; host or cells: HEK293 (HEK293-hFPRL2-Gα16)
T2 sequence (P25089 1-353): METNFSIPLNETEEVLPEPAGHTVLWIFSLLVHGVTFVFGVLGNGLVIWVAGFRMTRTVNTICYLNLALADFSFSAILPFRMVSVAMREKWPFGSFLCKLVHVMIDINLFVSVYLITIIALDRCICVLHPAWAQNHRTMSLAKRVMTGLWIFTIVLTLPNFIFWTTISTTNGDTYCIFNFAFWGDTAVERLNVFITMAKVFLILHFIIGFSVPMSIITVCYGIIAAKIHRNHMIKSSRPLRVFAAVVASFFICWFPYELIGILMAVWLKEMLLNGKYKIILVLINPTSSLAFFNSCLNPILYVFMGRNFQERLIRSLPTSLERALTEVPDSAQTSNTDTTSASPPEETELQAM
In words: Intracellular calcium measurements (FLIPR), agonistic activity in HEK293-hFPRL2-Gα16 cells. The class given is cell-based. The following applies: Fluo-4 calcium FLIPR, normalized to GLY14-Humanin 100 nM. The procedure:
as §1, §2
Cells expressing recombinant human FPRL2 and the G-protein Gα16 (HEK293-hFPRL2-Gα16) were grown to 80% confluency in Growing Medium (GM). […] Stock solutions of test compounds were made up at a concentration of 10 mM in DMSO, and serially diluted in AB to concentrations required for activation dose response curves. Gly14-Humanin (Humanin peptide with replacement of Serine by Glycine at position 14, Phoenix Peptides) was used as a reference agonist. FLIPR384 or FLIPR Tetra instruments (Molecular Devices) were operated according to the manufacturer's standard instructions, adding 4 μl of test compound dissolved at 10 mM in DMSO and diluted prior to the experiment in assay buffer to obtain the desired final concentration. Changes in fluorescence were monitored before and after the addition of test compounds at lex=488 nm and lem=540 nm. Emission peak values above base level after compounds addition were exported after base line subtraction. Values were normalized to high-level control (GLY14-Humanin compound, 100 nM final concentration) after subtraction of the base line value (AB addition).
For orientation: Calcium assays in cells follow changes in intracellular calcium, usually with a dye or a luminescent sensor.

Bounds are passed on as bounds.

Take `O=C(NCCCCN1CCCC1)[C@H]1[C@H](C(=O)Nc2cccc3nonc23)[C@@H]2C=C[C@H]1C21CC1` (racemic) [Example 151, (5R*)—N^5-(Benzo[2,1,3]oxadiazol-4-yl)-(6R*)—N^6-(4-pyrrolidin-1-yl-butyl)-(4S*,7R*)-[4,7-ethenylene-spiro[2.4]heptane]-5,6-dicarboxamide]: the EC50 was determined as 9120 nM at human ALX receptor and 714 nM at human FPRL2.
`NC(=O)CCNC(=O)[C@H]1[C@H](C(=O)NCc2ccc(Br)cc2)[C@@H]2CC[C@H]1C21CC1` [Example 291, (5R)—N^5-(4-Bromophenyl-methyl)-(6R)—N^6-(3-amino-3-oxopropyl)-(4S,7R)-[4,7-ethylene-spiro[2.4]heptane]-5,6-dicarboxamide]: the EC50 on human ALX receptor is 113 nM; on human FPRL2 it was > 25000 nM.
The matching figures for `CC1(C(=O)NCC2C(C(=O)Nc3ccc(Br)cc3)C3C=CC2C32CC2)CC1(Cl)Cl` (mixture of isomers) [Example 165, (5R*)—N^5-(4-Bromo-phenyl)-(6R*)-6-{[(2,2-dichloro-1-methyl-cyclopropylcarbonyl)-amino]-methyl}-(4S*,7R*)-[4,7-ethenylene-spiro[2.4]heptane]-5-carboxamide]: 87 nM and 2600 nM.
For `O=C(NCC1C(C(=O)Nc2ccc(Br)cc2)C2C=CC1C21CC1)c1cnoc1-c1ccccc1` (stereo not drawn) [Example 160, (5R*)—N^5-(4-Bromo-phenyl)-(6R*)-6-{[(5-phenyl-isoxazole-4-carbonyl)-amino]-methyl}-(4S*,7R*)-[4,7-ethenylene-spiro[2.4]heptane]-5-carboxamide] the same measures were 37 nM and > 25000 nM.
For `CCN1CCC(C(=O)NC[C@H]2[C@H](C(=O)Nc3ccc(Br)cc3)[C@@H]3C=C[C@H]2C32CC2)CC1` (racemic) [Example 173, (5R*)—N^5-(4-Bromo-phenyl)-(6R*)-6-{[(N-ethyl-piperidine-4-carbonyl)-amino]-methyl}-(4S*,7R*)-[4,7-ethenylene-spiro[2.4]heptane]-5-carboxamide] the same measures were 131 nM and 1820 nM.
Consider `O=C(NCCCCN1CCCC1)[C@H]1[C@H](C(=O)Nc2ccc3scnc3c2)[C@@H]2C=C[C@H]1C21CC1` (racemic) [Example 117, (5R*)—N^5-(Benzothiazol-5-yl)-(6R*)—N^6-(4-pyrrolidin-1-yl-butyl)-(4S*,7R*)-[4,7-ethenylene-spiro[2.4]heptane]-5,6-dicarboxamide], for which the EC50 at human ALX receptor amounted to 10 nM; on human FPRL2, 359 nM.
For `CC(=O)N1CCN(CCCCNC(=O)[C@H]2[C@H](C(=O)Nc3ccc(Br)cc3)[C@@H]3C=C[C@H]2C32CC2)CC1` [Example 217, (5R)—N^5-(4-Bromophenyl)-(6R)—N^6-(4-(4-acetyl-piperazin-1-yl)butyl)-(4S,7R)-[4,7-ethenylene-spiro[2.4]heptane]-5,6-dicarboxamide] the same measures were 38 nM and 61 nM.
For `Cc1ccc(NC(=O)C2C(C(=O)NCCCCN3CCCC3)C3C=CC2C32CC2)cn1` (stereo not drawn) [Example 253, (5R*)—N^5-(2-Methyl-pyridin-5-yl)-(6R*)—N^6-(4-pyrrolidin-1-yl-butyl)-(4S*,7R*)-[4,7-ethenylene-spiro[2.4]heptane]-5,6-dicarboxamide] the same measures were 131 nM and 1770 nM.
The matching figures for `O=C(NCCC(F)CN1CCCC1)[C@H]1[C@H](C(=O)Nc2ccc(Br)cc2)[C@@H]2C=C[C@H]1C21CC1` (stereo partly drawn) [Example 399, (5R)—N^5-(4-Bromophenyl)-(6R)—N^6-(3-fluoro-4-(pyrrolidin-1-yl)butyl)-(4S,7R)-[4,7-ethenylene-spiro[2.4]heptane]-5,6-dicarboxamide]: 5 nM and 4770 nM.
In the case of `O=C(NCC1COCCO1)C1C(C(=O)Nc2ccc(Br)cc2)C2C=CC1C21CC1` (mixture of isomers) [Example 41, (5R*)—N^5-(4-Bromophenyl)-(6R*)—N^6-([1,4]-dioxan-2-yl-methyl)-(4S*,7R*)-[4,7-ethenylene-spiro[2.4]heptane]-5,6-dicarboxamide], the values for the EC50 at human ALX receptor and on human FPRL2 were 9.5 nM and 8510 nM, respectively.
Take `O=C(NCCCCN1CCCC1)[C@H]1[C@H](C(=O)NCc2cccc(Br)c2)[C@@H]2C=C[C@H]1C21CC1` (racemic) [Example 143, (5R*)—N^5-(3-Bromophenyl-methyl)-(6R*)—N^6-(4-pyrrolidin-1-yl-butyl)-(4S*,7R*)-[4,7-ethenylene-spiro[2.4]heptane]-5,6-dicarboxamide]: the half-maximal effective concentration (EC50) on human ALX receptor amounted to 2060 nM; on human FPRL2, 94 nM.
For `O=C(NC1CCCC1)[C@H]1[C@H](C(=O)Nc2ccc(Br)cc2)[C@@H]2C=C[C@H]1C21CC1` (racemic) [Example 15, (5R*)—N^5-(4-Bromophenyl)-(6R*)—N^6-(cyclopentyl)-(4S*,7R*)-[4,7-ethenylene-spiro[2.4]heptane]-5,6-dicarboxamide] the same measures were 1.3 nM and 4400 nM.
For `COc1c(F)cc(CNC(=O)[C@H]2[C@H](C(=O)NCCCCN3CCCC3)[C@H]3C=C[C@@H]2C32CC2)cc1F` (racemic) [Example 229, (5R*)—N^5-(3,5-Difluoro-4-methoxy-phenyl-methyl)-(6R*)—N^6-(4-pyrrolidin-1-yl-butyl)-(4S*,7R*)-[4,7-ethenylene-spiro[2.4]heptane]-5,6-dicarboxamide] the same measures were 119 nM and 67 nM.
`O=C(Nc1ncc(Br)s1)C1C(C(=O)NC2CCNC2)C2CCC1C21CC1` [Example 412, (5R)—N^5-(5-Bromothiazol-2-yl)-(6R)—N^6-(pyrrolidin-3-yl)-(4S,7R)-[4,7-ethylene-spiro[2.4]heptane]-5,6-dicarboxamide]: the figures for the EC50 on human ALX receptor and at human FPRL2 were 8.9 nM and 1020 nM, respectively.
The matching figures for `CCCCNC(=O)[C@H]1[C@H](C(=O)NCCCCN2CCCC2)[C@H]2C=C[C@@H]1C21CC1` (racemic) [Example 136, (5R*)—N^5-Butyl-(6R*)—N^6-(4-pyrrolidin-1-yl-butyl)-(4S*,7R*)-[4,7-ethenylene-spiro[2.4]heptane]-5,6-dicarboxamide]: 365 nM and 1180 nM.
The matching figures for `CCn1nc(CCNC(=O)[C@H]2[C@H](C(=O)Nc3ccc(Br)cc3)[C@@H]3C=C[C@H]2C32CC2)cc1C` (racemic) [Example 62, (5R*)—N^5-(4-Bromophenyl)-(6R*)—N^6-(2-(1-ethyl-5-methyl-1H-pyrazol-3-yl)-ethyl)-(4S*,7R*)-[4,7-ethenylene-spiro[2.4]heptane]-5,6-dicarboxamide]: 24 nM and 363 nM.

Usually EC50 stands for the concentration that produces a half-maximal response.
